Values of other authors in US20220016116A1, “DETERMINING DRUG COMBINATIONS, SYNERGISTIC DRUG COMBINATION AND USE THEREOF IN PANCREATIC CANCER TREATMENT” (Innoplexus AG, priority 2020, published 2022).

Columns and labels:
[1] = system: PDAC cell
[2] = target: human epidermal growth factor receptor (EGFR) family (EGFR/HER1, HER2, and HER4) tyrosine kinases; settings: read-out: IC50 (affinity)
[3] = independent of drug concentrations from 250 ng/mL to 1000 ng/mL
[4] = 45 mg orally once daily, CV 35%

IC50 [2]: 6 nM | bound to plasma proteins [3]: 98% | Cmax, geometric mean [4]: 108 ng/mL | area under the concentration-time curve (AUC) [4]: 2213 ng·h/mL | volume of distribution (CV 18%): 1889 L | mean absolute bioavailability (after oral administration): 80% | time to reach maximum concentration (oral): approximately 6.0 h
SMILES: COc1cc2ncnc(Nc3ccc(F)c(Cl)c3)c2cc1NC(=O)/C=C/CN1CCCCC1 [Dacomitinib, (2E)-N-16-4-(piperidin-1-yl) but-2-enamide]
cell migration and invasion ([1]; through inhibition of EMT markers ZEB1, Snail and N-cadherin): attenuated cell migration and invasion | PDAC cell proliferation ([1]; via inhibition of FOXM1 and its targets Aurora kinase B and cyclin B1): diminishes PDAC cell proliferation | apoptosis and radio-sensitivity ([1]; via inhibition of anti-apoptotic proteins survivin and MCL1): induces apoptosis and potentiated radio-sensitivity
